Where a SMILES comes first, the peptide text is derived from it. Bridges are numbered along the chain shown (N, C = ends). [ ]: non-standard residue; d: D form. NMeW = CN[C@@H](Cc1c[nH]c2ccccc12)C(=O)O; Hyp = O=C(O)[C@@H]1C[C@@H](O)CN1; Tle = CC(C)(C)[C@H](N)C(=O)O; dDab = NCC[C@@H](N)C(=O)O; Orn = NCCC[C@H](N)C(=O)O; Dab = NCC[C@H](N)C(=O)O; dAze = O=C(O)[C@H]1CCN1; Sar = CNCC(=O)O
How the values were obtained:
Format in all cases: cell-based
[1] = system: Acinetobacter baumannii 872842; conditions: 872842
[2] = system: Acinetobacter baumannii DSM 30008; conditions: DSM 30008
Summary of the method: (§1)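 CLSI broth microdilution; MH-II (cation-adjusted) + 0.002% P-80; ~10^6 CFU/mL inoculum; peptide two-fold serial dilutions; 18-20 h, 35° C; MIC = no visible growth, μg/mL.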

[3] = system: Escherichia coli 926415; conditions: 926415
[4] = system: Escherichia coli ATCC 25922; conditions: ATCC 25922
Summary of the method: as §1

[5] = system: Klebsiella pneumoniae 968733; conditions: 968733
[6] = system: Klebsiella pneumoniae SSI #3010; conditions: SSI #3010
Summary of the method: as §1

[7] = system: Pseudomonas aeruginosa ATCC 27853; conditions: ATCC 27853
Summary of the method: as §1

[8] = system: human red blood cells (hRBC); assay: Hemolysis of human red blood cells; conditions: red cells of human, 1 h
Summary of the method: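 hRBC washed 3× PBS; 20% v/v, ~0.9×10^9 cells/mL final. Peptide 100 μg/mL, 1 h, 37° C., 300 rpm. Spin, supernatant diluted 8×, OD540. 0% = PBS + 0.001% acetic acid; 100% = 2.5% Triton X-100. % hemolysis = OD540 peptide/OD540 full lysis × 100.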

Compound	Acinetobacter baumannii 872842 MIC [1] [µg/mL]	Acinetobacter baumannii DSM 30008 MIC [2] [µg/mL]	Escherichia coli 926415 MIC [3] [µg/mL]	Escherichia coli ATCC 25922 MIC [4] [µg/mL]	Klebsiella pneumoniae 968733 MIC [5] [µg/mL]	Klebsiella pneumoniae SSI #3010 MIC [6] [µg/mL]	Pseudomonas aeruginosa ATCC 27853 MIC [7] [µg/mL]	Hemolysis at 100 μg/mL ([8]; 100 μg/mL) [%]	Hemolysis at 100 μg/mL [8]; 100 [%]
CN[C@@H](Cc1c[nH]c2ccccc12)C(=O)N[C@H]1CSSC[C@@H](C(=O)N(C)CC(=O)N[C@@H](CCN)C(=O)N[C@H](C(=O)N[C@@H](CCN)C(=O)N[C@H]2CCNC(=O)[C@H]([C@@H](C)O)NC(=O)[C@H](CCN)NC(=O)[C@H](CCN)NC(=O)[C@H](CC(C)C)NC(=O)[C@@H](CC(C)C)NC(=O)[C@H](CCN)NC2=O)[C@@H](C)O)NC(=O)[C@H](Cc2ccc(O)cc2)NC(=O)[C@H]([C@@H](C)O)NC(=O)[C@H](C(C)C)NC(=O)[C@@H]2C[C@@H](O)CN2C(=O)[C@@H](C)NC(=O)[C@H]([C@@H](C)O)NC(=O)[C@H](C)NC(=O)[C@H](C(C)C)NC1=O [Ex. 175] (H-[NMeW]CVAT[dA][Hyp]VTYC[Sar][Dab]T[Dab][Dab][Dab][dL]L[Dab][Dab]T; disulfide 2-11; lactam 16-C)	1	0.0625	0.5	0.0625	0.5	0.0625	0.25	<1	–
CN[C@@H](Cc1c[nH]c2ccccc12)C(=O)N[C@@H](CCN)C(=O)N[C@H](C(=O)N[C@H]1CC(=O)NCC[C@@H](C(=O)N[C@@H](Cc2ccc(O)cc2)C(=O)N[C@@H](CCN)C(=O)N(C)CC(=O)N[C@@H](CCN)C(=O)N[C@H](C(=O)N[C@@H](CCN)C(=O)N[C@H]2CCNC(=O)[C@H]([C@@H](C)O)NC(=O)[C@H](CCN)NC(=O)[C@H](CCN)NC(=O)[C@H](CC(C)C)NC(=O)[C@@H](CC(C)C)NC(=O)[C@H](CCN)NC2=O)[C@@H](C)O)NC(=O)[C@H](C(C)C)NC(=O)[C@@H]2CCCN2C(=O)[C@H]2CCN2C(=O)[C@H]([C@@H](C)O)NC1=O)C(C)(C)C [Ex. 176] (H-[NMeW][Dab][Tle]DT[dAze]PV[Dab]Y[Dab][Sar][Dab]T[Dab][Dab][Dab][dL]L[Dab][Dab]T; lactam 4-9, 16-C)	0.5	0.03125	0.0625	0.03125	0.25	0.0625	0.25	–	<1
CC(C)C[C@@H]1NC(=O)[C@@H](Cc2ccccc2)NC(=O)[C@H](CCN)NC(=O)[C@@H](NC(=O)[C@H](CCN)NC(=O)[C@@H](CCN)NC(=O)[C@@H](NC(=O)[C@H](CCCN)NC(=O)[C@@H]2CSSC[C@H](NC(=O)[C@@H](N)Cc3c[nH]c4ccccc34)C(=O)N[C@@H](C(C)C)C(=O)N[C@@H](C)C(=O)N[C@@H](CO)C(=O)N3CCC[C@@H]3C(=O)N3CCC[C@H]3C(=O)N[C@@H](C(C)C)C(=O)N[C@@H](CO)C(=O)N[C@@H](Cc3ccc(O)cc3)C(=O)N2)[C@@H](C)O)CCNC(=O)[C@H]([C@@H](C)O)NC(=O)[C@H](CCNC(=O)[C@@H](N)CCCNC(=N)N)NC(=O)[C@H](CCN)NC1=O [Ex. 177] (H-WCVAS[dP]PVSYC[Orn]T[dDab][Dab][Dab][Dab][dF]L[Dab][Dab](Arg)T; disulfide 2-11; lactam 16-C)	2	1	2	1	2	1	0.5	1.4	–
CC(C)C[C@@H]1NC(=O)[C@@H](CC(C)C)NC(=O)[C@H](CCN)NC(=O)[C@@H](NC(=O)[C@H](CCN)NC(=O)[C@@H](NC(=O)[C@H](CCN)NC(=O)CN(C)C(=O)[C@@H]2CSSC[C@H](NC(=O)[C@@H](N)Cc3c[nH]c4ccccc34)C(=O)N[C@@H](C(C)C)C(=O)N[C@@H](C)C(=O)N[C@@H](CO)C(=O)N3CCC[C@@H]3C(=O)N3CCC[C@H]3C(=O)N[C@@H](CC(C)C)C(=O)N[C@@H](CO)C(=O)N[C@@H](Cc3ccc(O)cc3)C(=O)N2)[C@@H](C)O)CCNC(=O)[C@@H]([C@H](C)O)NC(=O)[C@H](CCN)NC(=O)[C@H](CCN)NC1=O [Ex. 178] (H-WCVAS[dP]PLSYC[Sar][Dab]T[Dab][Dab][Dab][dL]L[Dab][Dab][dT]; disulfide 2-11; lactam 16-C)	2	1	1	0.5	8	0.5	4	<1	–
CC(C)C[C@@H]1NC(=O)[C@@H](CC(C)C)NC(=O)[C@H](CCN)NC(=O)[C@@H](NC(=O)[C@H](CCN)NC(=O)[C@@H](NC(=O)[C@H](CCN)NC(=O)CN(C)C(=O)[C@@H]2CSSC[C@H](NC(=O)[C@@H](N)Cc3c[nH]c4ccccc34)C(=O)N[C@@H](C(C)C)C(=O)N[C@@H](C)C(=O)N[C@@H](CO)C(=O)N3CCC[C@@H]3C(=O)N3CCC[C@H]3C(=O)N[C@@H](CC(C)C)C(=O)N[C@@H](CO)C(=O)N[C@@H](Cc3ccc(O)cc3)C(=O)N2)[C@@H](C)O)CCNC(=O)[C@H](C(C)C)NC(=O)[C@H](CCN)NC(=O)[C@H](CCN)NC1=O [Ex. 179] (H-WCVAS[dP]PLSYC[Sar][Dab]T[Dab][Dab][Dab][dL]L[Dab][Dab]V; disulfide 2-11; lactam 16-C)	0.0625	0.0625	0.125	0.0625	0.5	0.125	1	<1	–
CNCC(=O)N[C@@H](Cc1c[nH]c2ccccc12)C(=O)N[C@H]1CSSC[C@@H](C(=O)N(C)CC(=O)N[C@H](C(=O)N[C@@H](CCN)C(=O)N[C@@H](CCN)C(=O)N[C@H]2CCNC(=O)[C@H]([C@@H](C)O)NC(=O)[C@H](CCN)NC(=O)[C@H](CCN)NC(=O)[C@H](CC(C)C)NC(=O)[C@@H](CC(C)C)NC(=O)[C@H](CCN)NC2=O)[C@@H](C)O)NC(=O)[C@H](Cc2ccc(O)cc2)NC(=O)[C@H](CO)NC(=O)[C@H](CC(C)C)NC(=O)[C@@H]2CCCN2C(=O)[C@H]2CCCN2C(=O)[C@H](CO)NC(=O)[C@H](C)NC(=O)[C@H](C(C)C)NC1=O [Ex. 184] (H-[Sar]WCVAS[dP]PLSYC[Sar]T[Dab][Dab][Dab][Dab][dL]L[Dab][Dab]T; disulfide 3-12; lactam 17-C)	1	0.5	1	0.5	1	0.5	0.75	<1	–
